Test [1] has as its system antibodies in sera from SARS patients (sera 1a, 1b, 2, 6, 37, 62, London, SARS-yellow, SARS-green). It is filed as binding, human. Details: Binding of serum 6 to linear peptides of protein X1 of SARS-CoV Urbani / Binding of serum 37 to linear peptides of protein X1 of SARS-CoV Urbani / Binding of serum 6 to looped/cyclic peptide (PEPSCAN-ELISA) / Binding of serum 37 to looped/cyclic peptide (PEPSCAN-ELISA) / Binding of serum 37 to looped/cyclic peptides of protein X1 of SARS-CoV Urbani / Binding of serum 6 to linear peptides of protein X2 / Binding of serum 37 to linear peptides of protein X2 / Binding of serum 37 to looped/cyclic peptides of protein X2 of SARS-CoV Urbani / Binding of serum 6 to linear peptides of protein M of SARS-CoV Urbani / Binding of serum 37 to linear peptides of protein M of SARS-CoV Urbani / Binding of serum 6 to looped/cyclic peptides of protein M of SARS-CoV Urbani / Binding of serum 37 to looped/cyclic peptides of protein M of SARS-CoV Urbani / Binding of serum 6 to linear peptides of protein X3 of SARS-CoV Urbani / Binding of serum 37 to linear peptides of protein X3 of SARS-CoV Urbani / Binding of serum 37 to looped/cyclic peptides of protein X3 of SARS-CoV Urbani / Binding of serum 6 to linear peptides of protein X4 of SARS-CoV Urbani / Binding of serum 37 to linear peptides of protein X4 of SARS-CoV Urbani / Binding of serum 37 to looped/cyclic peptides of protein X4 of SARS-CoV Urbani / Binding of serum 6 to linear peptides of protein X5 of SARS-CoV Urbani / Binding of serum 37 to linear peptides of protein X5 of SARS-CoV Urbani / Binding of serum 37 to looped/cyclic peptides of protein X5 of SARS-CoV Urbani / Binding of serum 6 to linear peptides of protein N of SARS-CoV Urbani / Binding of serum 37 to linear peptides of protein N of SARS-CoV Urbani / Binding of serum 6 to linear peptide (PEPSCAN-ELISA) / Binding of serum 1a to looped/cyclic peptides of protein N of SARS-CoV Urbani / Binding of serum 1b to looped/cyclic peptides of protein N of SARS-CoV Urbani / Binding of serum 2 to looped/cyclic peptides of protein N of SARS-CoV Urbani / Binding of serum 6 to looped/cyclic peptides of protein N of SARS-CoV Urbani / Binding of serum 37 to looped/cyclic peptides of protein N of SARS-CoV Urbani / Binding of serum 62 to looped/cyclic peptides of protein N of SARS-CoV Urbani / Binding of serum London to looped/cyclic peptides of protein N of SARS-CoV Urbani / Binding of serum SARS-green to looped/cyclic peptides of protein N of SARS-CoV Urbani: unit not given here.

The subject of test [2] is control sera (pooled serum of ten healthy LUMC hospital workers; commercial negative donor pooled serum from the Dutch bloodbank). It is filed as binding, human. More on the design: Binding of Control serum LUMC to linear peptides / Binding of Control serum Blood-bank to linear peptides / Binding of Control serum LUMC to looped peptides / Binding of Control Serum Blood-Bank to Looped peptides / Binding of Control serum LUMC to linear peptides of the protein M of SARS-CoV Urbani / Binding of Control serum Blood-bank to linear peptides of the protein M of SARS-CoV Urbani / Binding of Control serum LUMC to looped peptides of the protein M of SARS-CoV Urbani / Binding of Control Serum Blood-Bank to Looped peptides of the protein M of SARS-CoV Urbani: unit not given here.

Test [3] deals with rabbit serum obtained by immunizing a rabbit with the SARS-CoV strain Frankfurt 1. Format: binding. More on the design: Binding of a rabbit serum to linear peptides / Binding of a rabbit serum to looped peptides / Rabbit serum linear peptides / Rabbit serum looped peptides / Binding of a rabbit serum to linear peptides of protein N of SARS-CoV Urbani (Rabbit serum linear peptides) / Binding of a rabbit serum to looped/cyclic peptides of protein N of SARS-CoV Urbani (Rabbit serum looped peptides): unit not given here.

DLPKEITVATSRTLS: in test [1], the “Binding of serum 1a to linear peptides of protein M of SARS-CoV Urbani” value came to 0.7, the “Binding of serum 1a to looped/cyclic peptides of protein M of SARS-CoV Urbani” value is recorded as 0.5, the “Binding of serum 1b to linear peptides of protein M of SARS-CoV Urbani” value worked out at 0.2 and the “Binding of serum 1b to looped/cyclic peptides of protein M of SARS-CoV Urbani” value was found to be 0.5. For the same sequence, in test [1], the “Binding of serum 2 to linear peptides of protein M of SARS-CoV Urbani” value was determined as 0.7, the “Binding of serum 2 to looped/cyclic peptides of protein M of SARS-CoV Urbani” value was found to be 0.6, the “Binding of serum 6 to linear peptides of protein M of SARS-CoV Urbani” value came out at 0.2 and the “Binding of serum 6 to looped/cyclic peptides of protein M of SARS-CoV Urbani” value is reported as 0.8. Besides, in test [1], the “Binding of serum 37 to linear peptides of protein M of SARS-CoV Urbani” value worked out at 0.5, the “Binding of serum 37 to looped/cyclic peptides of protein M of SARS-CoV Urbani” value was 0.7, the “Binding of serum 62 to linear peptides of protein M of SARS-CoV Urbani” value is listed as 0.7 and the “Binding of serum 62 to looped/cyclic peptides of protein M of SARS-CoV Urbani” value is 0.6. For the same sequence, in test [1], the “Binding of serum London to linear peptides of protein M of SARS-CoV Urbani” value amounted to 0.3, the “Binding of serum London to looped/cyclic peptides of protein M of SARS-CoV Urbani” value is on record as 0.4, the “Binding of serum SARS-green to linear peptides of protein M of SARS-CoV Urbani” value stood at 0.3 and the “Binding of serum SARS-green to looped/cyclic peptides of protein M of SARS-CoV Urbani” value is on record as 0.4. For the same sequence, in test [1], the “Binding of serum SARS-yellow to linear peptides of protein M of SARS-CoV Urbani” value was 0.0 and the “Binding of serum SARS-yellow to looped/cyclic peptides of protein M of SARS-CoV Urbani” value was 0.7. In test [2], the “Binding of Control Serum Blood-Bank to Looped peptides of the protein M of SARS-CoV Urbani” value was found to be 0.7, the “Binding of Control serum Blood-bank to linear peptides of the protein M of SARS-CoV Urbani” value came to 0.5, the “Binding of Control serum LUMC to linear peptides of the protein M of SARS-CoV Urbani” value was 0.2 and the “Binding of Control serum LUMC to looped peptides of the protein M of SARS-CoV Urbani” value was determined as 0.7. Also, in test [3], the “Rabbit serum linear peptides” value came to 0.1 and the “Rabbit serum looped peptides” value amounted to 0.3.

With DTIVVTEGDGISTPK, in test [1], the “Binding of serum 1a to linear peptides of protein X1 of SARS-CoV Urbani” value was 0.5, the “Binding of serum 1a to looped/cyclic peptides of protein X1 of SARS-CoV Urbani” value was 0.3, the “Binding of serum 1b to linear peptides of protein X1 of SARS-CoV Urbani” value was 0.4 and the “Binding of serum 1b to looped/cyclic peptides of protein X1 of SARS-CoV Urbani” value came out at 0.2. Moreover, in test [1], the “Binding of serum 2 to linear peptides of protein X1 of SARS-CoV Urbani” value is 0.3, the “Binding of serum 2 to looped/cyclic peptides of protein X1 of SARS-CoV Urbani” value is reported as 0.1, the “Binding of serum 6 to linear peptides of protein X1 of SARS-CoV Urbani” value was 0.4 and the “Binding of serum 6 to looped/cyclic peptides of protein X1 of SARS-CoV Urbani” value was 0.2. Also, in test [1], the “Binding of serum 37 to linear peptides of protein X1 of SARS-CoV Urbani” value came out at 0.4, the “Binding of serum 37 to looped/cyclic peptides of protein X1 of SARS-CoV Urbani” value was found to be 0.3, the “Binding of serum 62 to linear peptides of protein X1 of SARS-CoV Urbani” value was found to be 0.3 and the “Binding of serum 62 to looped/cyclic peptides of protein X1 of SARS-CoV Urbani” value worked out at 0.3. Also, in test [1], the “Binding of serum London to linear peptides of protein X1 of SARS-CoV Urbani” value is reported as 0.2, the “Binding of serum London to looped/cyclic peptides of protein X1 of SARS-CoV Urbani” value is 0.2, the “Binding of serum SARS-green to linear peptides of protein X1 of SARS-CoV Urbani” value is 0.2 and the “Binding of serum SARS-green to looped/cyclic peptides of protein X1 of SARS-CoV Urbani” value was determined as 0.1. Also, in test [1], the “Binding of serum SARS-yellow to linear peptides of protein X1 of SARS-CoV Urbani” value stood at 0.1 and the “Binding of serum SARS-yellow to looped/cyclic peptides of protein X1 of SARS-CoV Urbani” value was determined as 0.1. In addition, in test [2], the “Binding of Control Serum Blood-Bank to Looped peptides” value is 0.4, the “Binding of Control serum Blood-bank to linear peptides” value is recorded as 0.4, the “Binding of Control serum LUMC to linear peptides” value is on record as 0.3 and the “Binding of Control serum LUMC to looped peptides” value came out at 0.3. In addition, in test [3], the “Binding of a rabbit serum to linear peptides” value was 0.1 and the “Binding of a rabbit serum to looped peptides” value is on record as 0.5.

For the sequence DYVVVHGYFTEVYYQ, in test [1], the “Binding of serum 1a to linear peptides of protein X1 of SARS-CoV Urbani” value was 0.6, the “Binding of serum 1a to looped/cyclic peptides of protein X1 of SARS-CoV Urbani” value worked out at 0.6, the “Binding of serum 1b to linear peptides of protein X1 of SARS-CoV Urbani” value is recorded as 0.5 and the “Binding of serum 1b to looped/cyclic peptides of protein X1 of SARS-CoV Urbani” value came out at 0.5. In addition, in test [1], the “Binding of serum 2 to linear peptides of protein X1 of SARS-CoV Urbani” value turned out to be 0.4, the “Binding of serum 2 to looped/cyclic peptides of protein X1 of SARS-CoV Urbani” value was 0.5, the “Binding of serum 6 to linear peptides of protein X1 of SARS-CoV Urbani” value is given as 0.4 and the “Binding of serum 6 to looped/cyclic peptides of protein X1 of SARS-CoV Urbani” value is reported as 0.3. In test [1], the “Binding of serum 37 to linear peptides of protein X1 of SARS-CoV Urbani” value is recorded as 0.6, the “Binding of serum 37 to looped/cyclic peptides of protein X1 of SARS-CoV Urbani” value worked out at 0.7, the “Binding of serum 62 to linear peptides of protein X1 of SARS-CoV Urbani” value was 0.4 and the “Binding of serum 62 to looped/cyclic peptides of protein X1 of SARS-CoV Urbani” value is 0.7. For the same sequence, in test [1], the “Binding of serum London to linear peptides of protein X1 of SARS-CoV Urbani” value is reported as 0.2, the “Binding of serum London to looped/cyclic peptides of protein X1 of SARS-CoV Urbani” value is reported as 0.2, the “Binding of serum SARS-green to linear peptides of protein X1 of SARS-CoV Urbani” value stood at 0.3 and the “Binding of serum SARS-green to looped/cyclic peptides of protein X1 of SARS-CoV Urbani” value came to 0.3. Also, in test [1], the “Binding of serum SARS-yellow to linear peptides of protein X1 of SARS-CoV Urbani” value came to 0.3 and the “Binding of serum SARS-yellow to looped/cyclic peptides of protein X1 of SARS-CoV Urbani” value is 0.5. In test [2], the “Binding of Control Serum Blood-Bank to Looped peptides” value worked out at 0.5, the “Binding of Control serum Blood-bank to linear peptides” value was 0.5, the “Binding of Control serum LUMC to linear peptides” value was 0.7 and the “Binding of Control serum LUMC to looped peptides” value was determined as 0.7. Besides, in test [3], the “Binding of a rabbit serum to linear peptides” value worked out at 0.1 and the “Binding of a rabbit serum to looped peptides” value is recorded as 0.6.

On to EAQFLYLYALIYFLQ, for which, in test [1], the “Binding of serum 1a to linear peptides of protein X1 of SARS-CoV Urbani” value worked out at 0.7, the “Binding of serum 1a to looped/cyclic peptide (PEPSCAN-ELISA)” value stood at 0.5, the “Binding of serum 1b to linear peptides of protein X1 of SARS-CoV Urbani” value is listed as 0.4 and the “Binding of serum 1b to looped/cyclic peptide (PEPSCAN-ELISA)” value was found to be 0.3. Moreover, in test [1], the “Binding of serum 2 to linear peptides of protein X1 of SARS-CoV Urbani” value came to 0.6, the “Binding of serum 2 to looped/cyclic peptide (PEPSCAN-ELISA)” value was determined as 0.4, the “Binding of serum 6 to linear peptides of protein X1 of SARS-CoV Urbani” value is on record as 0.4 and the “Binding of serum 6 to looped/cyclic peptide (PEPSCAN-ELISA)” value turned out to be 0.2. For the same sequence, in test [1], the “Binding of serum 37 to linear peptides of protein X1 of SARS-CoV Urbani” value came to 0.5, the “Binding of serum 37 to looped/cyclic peptide (PEPSCAN-ELISA)” value is listed as 0.5, the “Binding of serum 62 to linear peptides of protein X1 of SARS-CoV Urbani” value turned out to be 0.4 and the “Binding of serum 62 to looped/cyclic peptide (PEPSCAN-ELISA)” value is recorded as 0.5. Also, in test [1], the “Binding of serum London to linear peptides of protein X1 of SARS-CoV Urbani” value is on record as 0.2, the “Binding of serum London to looped/cyclic peptide (PEPSCAN-ELISA)” value turned out to be 0.2, the “Binding of serum SARS-green to linear peptides of protein X1 of SARS-CoV Urbani” value is listed as 0.1 and the “Binding of serum SARS-green to looped/cyclic peptide (PEPSCAN-ELISA)” value is on record as 0.2. In addition, in test [1], the “Binding of serum SARS-yellow to linear peptides of protein X1 of SARS-CoV Urbani” value was found to be 0.2 and the “Binding of serum SARS-yellow to looped/cyclic peptide (PEPSCAN-ELISA)” value worked out at 0.3. In test [2], the “Binding of Control Serum Blood-Bank to Looped peptides” value came to 0.4, the “Binding of Control serum Blood-bank to linear peptides” value stood at 0.3, the “Binding of Control serum LUMC to linear peptides” value turned out to be 0.5 and the “Binding of Control serum LUMC to looped peptides” value was 0.5. In test [3], the “Binding of a rabbit serum to linear peptides” value is 0.1 and the “Binding of a rabbit serum to looped peptides” value was 0.5.
